Test results: US20250040548A1, “Herbicidal compositions comprising saflufenacil” (BASF SF, priority 2023, published 2025)

Experiments:
COMBE = assay: Post-emergence application in greenhouse trials; type: in vivo, Commelina benghalensis; settings: growth stage 21, 1% MSO
Description: (§1) In the examples below, using the method of S. R. Colby (1967) “Calculating synergistic and antagonistic responses of herbicide combinations”, Weeds 15, p. 22ff., the value E, which is expected if the activity of the individual active compounds is only additive, was calculated.
(§2) [formula] • where • X=percent activity using active herbicide A at an application rate a; • Y=percent activity using active saflufenacil at an application rate b; • E=expected activity (in %) by A+B at application rates a+b.
(§3) If the value found experimentally is higher than the value E calculated according to Colby, a synergistic effect is present.
(§4) The culture containers used were plastic pots containing loamy sand with approximately 3.0% of humus as substrate. The seeds of the test plants were sown separately for each species.
(§5) For the post-emergence treatment, the test plants were grown to a plant height of from 3 to 15 cm, depending on the plant habit, and only then treated with the active compounds which had been suspended or emulsified in water. To this end, the test plants were either sown directly, and grown in the same containers, or they were first grown separately as seedlings and transplanted into the test containers a few days prior to treatment.
(§6) Depending on the species, the plants were kept at 10-25° C. and 20-35° C., respectively.
(§7) The test period extended over 2 to 4 weeks. During this time, the plants were tended and their response to the individual treatments was evaluated.
(§8) Evaluation was carried out using a scale from 0 to 100. 100 means no emergence of the plants, or complete destruction of at least the above-ground parts, and 0 means no damage or normal course of growth. A good herbicidal activity is given at values of at least 70, and very good herbicidal activity is given at values of at least 85.
(§9) Unless indicated otherwise, herbicide A and saflufenacil were formulated (50 g/I) and applied with addition of 1% MSO (methylated seed oil) as adjuvant. In the greenhouse trials, the solvent used was water (200 I/ha).

KCHSC = assay: Post-emergence application in greenhouse trials; type: in vivo, Kochia scoparia; settings: growth stage 33, 1% MSO
Description: as §1, §2, §3, §4, §5, §6, §7, §8, §9

SETFA = assay: Post-emergence application in greenhouse trials; type: in vivo, Setaria faberi; settings: 7 DAT, growth stage 13, 1% MSO
Description: as §1, §2, §3, §4, §5, §6, §7, §8, §9

CHEAL = assay: Post-emergence application in greenhouse trials; type: in vivo, Chenopodium album; settings: B-1 3.12 g ai/ha, 21 DAT, growth stage 51, saflufenacil as commercial 342 g/l SC formulation
Description: as §1, §2, §3, §4
as §5, with “treatment. […]” for “treatment.”
(§10) The test period extended over 2 to 4 weeks. During this time, the plants were tended and their response to the individual treatments was evaluated. […]

ELEIN [1] = assay: Post-emergence application in greenhouse trials; type: in vivo, Eleusine indica; settings: B-1 3.12 g ai/ha, 21 DAT, growth stage 21, saflufenacil as commercial 342 g/l SC formulation
Description: as §1, §2, §3, §4
as §5, with “treatment. […]” for “treatment.”
as §10

AVEFA = assay: Post-emergence application in field trials (Examples 2 and 3); type: in vivo, Avena fatua; settings: 1% v/v MSO
Description: as §1, §2, §3
(§11) On field test sites, natural weed infestation or seeded weeds were treated post-emergence of the weeds.
(§12) For the post emergence treatment, the weedy plants were treated as indicated below. The herbicidal compositions were, together with the adjuvant(s) as indicated, suspended or emulsified in water (200 l/ha unless indicated otherwise) as distribution medium and sprayed with commercial flat fan nozzles.
(§13) In the following experiments, the herbicidal activity for the individual herbicidal compositions (solo and mixture applications) was assessed the indicated days after treatment (DAT). The assessments for the damage on undesired weeds caused by the composition was carried out using a scale from 0 to 100%, compared to the untreated control plants. Here, 0 means no damage and 100 means complete destruction of the plants.
as §12, with “I/ha” for “l/ha”

AVEST = assay: as above; type: in vivo, Avena stirilis; settings: growth stage 12-22, B-1 solo 25 g ai/ha, 14 DAT, 1% v/ MSO
Description: as §1, §2, §3, §11, §12
as §13, with “Here, 0 means no damage and 100 means complete destruction of the plants.” left out

BIDPI = assay: as above; type: in vivo, Bidens pilosa; settings: B-1 25 g ai/ha, 21 DAT, growth stage 12-16, height 5-10 cm, 0.5% MSO
Description: as §1, §2, §3, §11, §12
as §13, with “Here, 0 means no damage and 100 means complete destruction of the plants.” left out

ELEIN [2] = assay: as above; type: in vivo, Eleusine indica
Description: as §1, §2, §3, §11, §12, §13
as §12, with “I/ha” for “l/ha”

ERISS = assay: as above; type: in vivo, Erigeron sp.; settings: B-1 25 g ai/ha, 14 DAT, height 30-50 cm, 0.5% v/v MSO
Description: as §1, §2, §3, §11, §12, §13
as §12, with “I/ha” for “l/ha”

POAAN = assay: as above; type: in vivo, Poa annua
Description: as §1, §2, §3, §11, §12, §13
as §12, with “I/ha” for “l/ha”

SETVI = assay: as above; type: in vivo, Setaria viridis
Description: as §1, §2, §3, §11, §12, §13
as §12, with “I/ha” for “l/ha”

STEME = assay: as above; type: in vivo, Stellaria media; settings: B-1 12.5 g ai/ha, 21 DAT, growth stage 63-67, height 7-18 cm, 140 l/ha water, 1% MSO + 2.5% ammoniumsulfate
Description: as §1, §2, §3, §11, §12
as §13, with “Here, 0 means no damage and 100 means complete destruction of the plants.” left out

[3] = test system: ZEAMX* (non-PPOi herbicide tolerant); assay: as above; type: in vivo, Zea mays; settings: B-1 25 g ai/ha, 21 DAT
Description: as §1, §2, §3, §11, §12, §13
as §12, with “I/ha” for “l/ha”

With CC(C)N(C)S(=O)(=O)NC(=O)c1cc(-n2c(=O)cc(C(F)(F)F)n(C)c2=O)c(F)cc1Cl [B-1, saflufenacil] the “% Herbicidal activity” value (COMBE; B-1 0.2 g ai/ha, 6 DAT) was 15%, the “% Herbicidal activity” value (COMBE; B-1 0.2 g ai/ha, 20 DAT) was 5% and the “% Herbicidal activity” value (COMBE; B-1 0.8 g ai/ha, 20 DAT) was 75%. The “% Herbicidal activity” value (KCHSC; B-1 0.2 g ai/ha, 6 DAT) was 15%, the “% Herbicidal activity” value (KCHSC; B-1 0.3 g ai/ha, 6 DAT) was 35% and the “% Herbicidal activity” value (KCHSC; B-1 0.8 g ai/ha, 6 DAT) was 60%. The “% Herbicidal activity” value (KCHSC; B-1 0.8 g ai/ha, 20 DAT) was 70%, the “% Herbicidal activity” value (KCHSC; B-1 0.9 g ai/ha, 6 DAT) was 60% and the “% Herbicidal activity” value (KCHSC; B-1 1 g ai/ha, 6 DAT) was 80%. The “% Herbicidal activity” value (KCHSC; B-1 1 g ai/ha, 20 DAT) was 80%, the “% Herbicidal activity” value (SETFA; B-1 0.5 g ai/ha) was 10% and the “% Herbicidal activity” value (SETFA; B-1 0.8 g ai/ha) was 15%. The “% Herbicidal activity” value (SETFA; B-1 0.9 g ai/ha) was 15%, the “% Herbicidal activity” value (SETFA; B-1 1.1 g ai/ha) was 35% and the “% Herbicidal activity” value (CHEAL) was 85%. For the same molecule, the “% Herbicidal activity” value (ELEIN [1]) was 30%, the “% Herbicidal activity” value (AVEFA; AVEFA, growth stage 15-16, height 25-38 cm, B-1 solo 25 g ai/ha, 16 DAT) was 3% and the “% Herbicidal activity” value (AVEFA; B-1 18 g ai/ha, 28 DAT, growth stage 14-15, height 9-16 cm, field, 100 l/ha water) was 0%. The “% Herbicidal activity” value (AVEFA; B-1 18 g ai/ha, 29 DAT, growth stage 14-23, height 24-40 cm, field, 100 l/ha water) was 0%, the “% Herbicidal activity” value (AVEST) was 0% and the “% Herbicidal activity” value (BIDPI) was 5%. The “% Herbicidal activity” value (ELEIN [2]; B-1 12.5 g ai/ha, 21 DAT, height 1-15 cm, 140 l/ha water, 1% MSO + 2.5% ammoniumsulfate) was 19%, the “% Herbicidal activity” value (ELEIN [2]; B-1 25 g ai/ha, 19 DAT, growth stage 24, 0.5% MSO) was 0% and the “% Herbicidal activity” value (ELEIN [2]; B-1 25 g ai/ha, 21 DAT, height 7-10 cm, 1% v/v MSO and 1% w/v ammoniumsulfate) was 0%. The “% Herbicidal activity” value (ELEIN [2]; B-1 25 g ai/ha, 21 DAT, height 15-20 cm, 1% v/v MSO and 1% w/v ammoniumsulfate) was 0%, the “% Herbicidal activity” value (ERISS) was 63% and the “% Herbicidal activity” value (POAAN; B-1 12.5 g ai/ha, 21 DAT, growth stage 55-65, height 10-15 cm, field, 140 l/ha water, 1% MSO + 2.5% ammoniumsulfate) was 18%. For the same molecule, the “% Herbicidal activity” value (POAAN; POAAN, height 2.5-4 cm, B-1 solo 25 g ai/ha, 7 DAT, 1% v/v MSO) was 12%, the “% Herbicidal activity” value (SETVI; B-1 25 g ai/ha, 19 DAT, growth stage 13-19, height 2.5-10 cm, field, 1% v/v MSO and 1% w/v ammoniumsulfate) was 22% and the “% Herbicidal activity” value (SETVI; SETVI, height 50-61 cm, B-1 solo 25 g ai/ha, 42 DAT, 1% v/v MSO and 2.5% AMSOL ®) was 33%. The “% Herbicidal activity” value (STEME) was 53%, the “% Herbicidal activity” value ([3]; growth stage 15, 1% v/v MSO and 1% w/v ammoniumsulfate) was 15% and the “% Herbicidal activity” value ([3]; growth stage 18, 0.5% MSO) was 0%.
